Measurements taken from US20080031868A1, “HUMAN LYSOZYME MEDICINE, ITS MANUFACTURING METHOD AND APPLICATION THEREOF” (priority 2005, published 2008).
Converted amounts (≈) assume the structure as drawn.

Columns and labels:
[1] = system: Staphylococcus aureus MRSABAA-42; assay: Bronchus pneumonia mice infected by Staphylococcus aureus MRSA BAA-42, treated by atomization inspiring; assay type: in vivo; conditions: for accumulative survival number: 30 mice; for accumulative survival number / survival rate (%): 14 days; for survival elevation rate (%): versus infected model group; for bacterial number: mice lung
[2] = system: Staphylococcus aureus MRSABAA-42; assay: as above; assay type: in vivo; conditions: mice lung; atomization inspired 6.0; the 1th day
From the text: A, atomization sucks gene recombinant Human Lysozyme (HLZ) cured bronchus pneumonia mice infected by Staphylococcus aureus MRSABAA-42
Choose the test lawn, after washing with the physiological saline, correcting by McB tubes for comparative tests bacterium solution concentration 2#MCF, turbidity of 2.7×10^11 CFU/ml, diluted with physiological saline separately into 10^−1, 10^−2, 10^−3 bacterium solution, drip the nose to infect for mice respectively (anaesthetize the mice with the pentobarbital first, 30 mg/kg, ip.), 0.05 ml a mouse. Observed the mice body changing, and killed parts of mice after infecting 48 h, fetch the whole lung to tissue homogenate, 10 times diluted by physiological saline, draw 0.1 m1 to MH agar plate surface, to cultivate last night 35° C., Gram staining, test under microscope, and count plate. At the same time recorded the number of death mice, and collect some mice tracheas, bronchus, lung tissue and do pathology tissue observing.
It is called medial lethal dose (LD50) that bacterium amount caused mice appearing lung pharmacology change and 50% died. LD50was used as experimental treatment amount.
Infected mice is divided into 10 groups at random according to the weight, 30 every groups.
Designed dosage: The concentration of recombinant human lysozyme medicine was 15000 u/ml as in clinical atomization therapy. Its dose was 15000 u per time and administrated one time everyday, I.e 0.5 mg per time everyday. The dose was 1.3×10-3 mg a mice (counted by weight of 20 g). […] To ensure the breathing amount of lysozyme, the breathing time were extended for 0.5 hour. Based on 0.5 mg/ml, the concentration of 0.25 mg/ml, 1.0 mg/ml and 2.0 mg/ml were set respectively as treatment dose.
The same group mice were put into the ultrasonic atomizer and then treated with human lysozyme atomized in the compression sprayer (PARL.BOY), twice a day, 5 days in succession.
Every group, from the infected day to calculae, the animal incidence and death were recorded 14 days in succession. Every group collected 2-3 mice and killed them the 14th day after infecting, did bacteriology detection after lung homogenate, killed surplus animal to fetch the trachea, bronchus, fixed in 10% of the formaldehyde solution after weighing, did pathology check.
The bacterial culture: A part of mice were killed after infecting 24 h, fetched the whole lung weighting, added 2 ml degerming PBS solution 10 times diluted, draw 0.1 mL to MH agar plate surface, to cultivate last night 35° C., counted in the cultivation plateform of 30-300 CF, if the two close level tissue fluid is 30-300 CFU, counted the low density (make 3 plateforms at the same time each tissue fluid, calculate the average). Collected 2 mice to do bacterial culture in every group at random in 5, 7, 14 days after administration.
Pathology detection: After dissecting the mice, observed the trachea, bronchus, syncretio of lung, chest wall and membrana pleuralis, the volume of lung and size of lung focus, the lung surface was congested, hydroncus, consolidation and atelectasis by the naked eye. Took out the trachea, bronchus and the whole lung tissue to fixed with 10% of the formaldehyde solution, draw materials.

[3] = 0.75 mg/ml atomization inspired

SMILES: CC[C@H]1OC(=O)[C@H](C)[C@@H](O[C@H]2C[C@@](C)(OC)[C@@H](O)[C@H](C)O2)[C@H](C)[C@@H](O[C@@H]2O[C@H](C)C[C@H](N(C)C)[C@H]2O)[C@](C)(OC)C[C@@H](C)C(=O)[C@H](C)[C@@H](O)[C@]1(C)O [Clarithromycin, reference compound]
- average survival day (day, x ± s) [1, 3]: 7.67 ± 4.01 days
- accumulative survival number [1, 3]: 5
- survival rate (%) [1, 3]: 16.7%
- Death number(piece) ([1]; 0.75 mg/ml atomization inspired, day 1): 0 piece
- Death number(piece) ([1]; 0.75 mg/ml atomization inspired, day 2): 0 piece
- Death number(piece) ([1]; 0.75 mg/ml atomization inspired, day 3): 4 piece
- Death number(piece) ([1]; 0.75 mg/ml atomization inspired, day 4): 4 piece
- Death number(piece) ([1]; 0.75 mg/ml atomization inspired, day 5): 3 piece
- Death number(piece) ([1]; 0.75 mg/ml atomization inspired, day 6): 4 piece
- Death number(piece) ([1]; 0.75 mg/ml atomization inspired, day 7): 4 piece
- Death number(piece) ([1]; 0.75 mg/ml atomization inspired, day 8): 2 piece
- Death number(piece) ([1]; 0.75 mg/ml atomization inspired, day 9): 3 piece
- Death number(piece) ([1]; 0.75 mg/ml atomization inspired, day 10): 1 piece
- Death number(piece) ([1]; 0.75 mg/ml atomization inspired, day 11): 0 piece
- Death number(piece) ([1]; 0.75 mg/ml atomization inspired, day 12): 0 piece
- Death number(piece) ([1]; 0.75 mg/ml atomization inspired, day 13): 0 piece
- Death number(piece) ([1]; 0.75 mg/ml atomization inspired, day 14): 0 piece
- survival elevation rate (%) [1, 3]: 0.00%
- average survival day (day, x ± s) ([1]; 1.5 mg/ml atomization inspired): 8.70 ± 4.65 days
- accumulative survival number ([1]; 1.5 mg/ml atomization inspired): 12
- survival rate (%) ([1]; 1.5 mg/ml atomization inspired): 40.0%
- Death number(piece) ([1]; 1.5 mg/ml atomization inspired, day 1): 0 piece
- Death number(piece) ([1]; 1.5 mg/ml atomization inspired, day 2): 0 piece
- Death number(piece) ([1]; 1.5 mg/ml atomization inspired, day 3): 4 piece
- Death number(piece) ([1]; 1.5 mg/ml atomization inspired, day 4): 4 piece
- Death number(piece) ([1]; 1.5 mg/ml atomization inspired, day 5): 3 piece
- Death number(piece) ([1]; 1.5 mg/ml atomization inspired, day 6): 4 piece
- Death number(piece) ([1]; 1.5 mg/ml atomization inspired, day 7): 0 piece
- Death number(piece) ([1]; 1.5 mg/ml atomization inspired, day 8): 2 piece
- Death number(piece) ([1]; 1.5 mg/ml atomization inspired, day 9): 0 piece
- Death number(piece) ([1]; 1.5 mg/ml atomization inspired, day 10): 1 piece
- Death number(piece) ([1]; 1.5 mg/ml atomization inspired, day 11): 0 piece
- Death number(piece) ([1]; 1.5 mg/ml atomization inspired, day 12): 0 piece
- Death number(piece) ([1]; 1.5 mg/ml atomization inspired, day 13): 0 piece
- Death number(piece) ([1]; 1.5 mg/ml atomization inspired, day 14): 0 piece
- survival elevation rate (%) ([1]; 1.5 mg/ml atomization inspired): 23.3%
- average survival day (day, x ± s) ([1]; 3 mg/ml atomization inspired): 11.20 ± 3.53 days
- accumulative survival number ([1]; 3 mg/ml atomization inspired): 18
- survival rate (%) ([1]; 3 mg/ml atomization inspired): 60.0%
- Death number(piece) ([1]; 3 mg/ml atomization inspired, day 1): 0 piece
- Death number(piece) ([1]; 3 mg/ml atomization inspired, day 2): 0 piece
- Death number(piece) ([1]; 3 mg/ml atomization inspired, day 3): 0 piece
- Death number(piece) ([1]; 3 mg/ml atomization inspired, day 4): 0 piece
- Death number(piece) ([1]; 3 mg/ml atomization inspired, day 5): 0 piece
- Death number(piece) ([1]; 3 mg/ml atomization inspired, day 6): 4 piece
- Death number(piece) ([1]; 3 mg/ml atomization inspired, day 7): 4 piece
- Death number(piece) ([1]; 3 mg/ml atomization inspired, day 8): 4 piece
- Death number(piece) ([1]; 3 mg/ml atomization inspired, day 9): 0 piece
- Death number(piece) ([1]; 3 mg/ml atomization inspired, day 10): 0 piece
- Death number(piece) ([1]; 3 mg/ml atomization inspired, day 11): 0 piece
- Death number(piece) ([1]; 3 mg/ml atomization inspired, day 12): 0 piece
- Death number(piece) ([1]; 3 mg/ml atomization inspired, day 13): 0 piece
- Death number(piece) ([1]; 3 mg/ml atomization inspired, day 14): 0 piece
- survival elevation rate (%) ([1]; 3 mg/ml atomization inspired): 43.3%
- average survival day (day, x ± s) ([1]; 6 mg/ml atomization inspired): 11.60 ± 3.48 days
- accumulative survival number ([1]; 6 mg/ml atomization inspired): 20
- survival rate (%) ([1]; 6 mg/ml atomization inspired): 66.7%
- Death number(piece) ([1]; 6 mg/ml atomization inspired, day 1): 0 piece
- Death number(piece) ([1]; 6 mg/ml atomization inspired, day 2): 0 piece
- Death number(piece) ([1]; 6 mg/ml atomization inspired, day 3): 0 piece
- Death number(piece) ([1]; 6 mg/ml atomization inspired, day 4): 0 piece
- Death number(piece) ([1]; 6 mg/ml atomization inspired, day 5): 0 piece
- Death number(piece) ([1]; 6 mg/ml atomization inspired, day 6): 4 piece
- Death number(piece) ([1]; 6 mg/ml atomization inspired, day 7): 4 piece
- Death number(piece) ([1]; 6 mg/ml atomization inspired, day 8): 2 piece
- Death number(piece) ([1]; 6 mg/ml atomization inspired, day 9): 0 piece
- Death number(piece) ([1]; 6 mg/ml atomization inspired, day 10): 0 piece
- Death number(piece) ([1]; 6 mg/ml atomization inspired, day 11): 0 piece
- Death number(piece) ([1]; 6 mg/ml atomization inspired, day 12): 0 piece
- Death number(piece) ([1]; 6 mg/ml atomization inspired, day 13): 0 piece
- Death number(piece) ([1]; 6 mg/ml atomization inspired, day 14): 0 piece
- survival elevation rate (%) ([1]; 6 mg/ml atomization inspired): 50.0%
- The 4th day (bacterial number, head incomplete) ([1]; dose 1.5): 3.4 ± 0.25
- The 5th day (bacterial number, head incomplete) ([1]; dose 1.5, the 5th day): 64.40 ± 15.69
- The 4th day (bacterial number, head incomplete) ([1]; dose 3): 2.5 ± 0.22
- The 5th day (bacterial number, head incomplete) ([1]; dose 3, the 5th day): 60.70 ± 13.98
- The 4th day (bacterial number, head incomplete) ([1]; dose 6): 2.2 ± 0.12
- The 5th day (bacterial number, head incomplete) ([1]; dose 6, the 5th day): 57.60 ± 15.37
- bacterial number ([1]; atomization inspired 1.5, 0 day): 350 ± 21.5 CFU/mL
- bacterial number ([1]; atomization inspired 1.5, the 1th day): 247.10 ± 21.31 CFU/mL
- bacterial number ([1]; atomization inspired 1.5, the 3rd day): 146.90 ± 13.55 CFU/mL
- bacterial number ([1]; atomization inspired 1.5, the 5th day): 64.40 ± 15.69 CFU/mL
- bacterial number ([1]; atomization inspired 1.5, the 14th day): 28.0 ± 2.60 CFU/mL
- bacterial number ([1]; atomization inspired 3.0, 0 day): 350 ± 21.5 CFU/mL
- bacterial number ([1]; atomization inspired 3.0, the 1th day): 246.30 ± 19.03 CFU/mL
- bacterial number ([1]; atomization inspired 3.0, the 3rd day): 141.10 ± 18.54 CFU/mL
- bacterial number ([1]; atomization inspired 3.0, the 5th day): 60.70 ± 13.98 CFU/mL
- bacterial number ([1]; atomization inspired 3.0, the 14th day): 24.0 ± 2.00 CFU/mL
- bacterial number ([1]; atomization inspired 6.0, 0 day): 350 ± 21.5 CFU/mL
- bacterial number ([1]; atomization inspired 6.0, the 3rd day): 134.60 ± 13.58 CFU/mL
- bacterial number ([1]; atomization inspired 6.0, the 5th day): 57.60 ± 15.37 CFU/mL
- bacterial number ([1]; atomization inspired 6.0, the 14th day): 10.0 ± 8.00 CFU/mL
- 95% feasible limits of ED50 ([1]; mice survival over 14 days, Bliss method): 1760 to 4020 µg/mL
- ED50 (median effective dose) ([1]; mice survival over 14 days, Bliss method, atomization inspired): 2550 µg/mL (≈ 3.41 mM)
- bacterial number [2]: 241.9 ± 16.62 CFU/mL
